Measured values taken from ChEMBL document CHEMBL2429833, “A new class of bactericidal agents against S. aureus, MRSA and VRE derived from bisindolylmethane” (Med Chem Res, 2013).
Values after ≈ are worked out from the molar mass of the structure shown. Active and inactive are the calls of the source. No cut-off for these calls is given here.

Columns and labels:
Staphylococcus aureus [1] = experiment: Antibacterial activity against methicillin-resistant Staphylococcus aureus after 24 hrs by microdilution method; assay type: functional
PC-3 = experiment: Cytotoxicity against human PC3 cells after 48 hrs by MTT assay; assay type: functional, cell-based
Staphylococcus aureus [2] = experiment: Bactericidal activity against methicillin-resistant Staphylococcus aureus after 24 hrs; assay type: functional
Enterococcus faecalis [3] = experiment: Bactericidal activity against vancomycin-resistant Enterococcus faecalis after 24 hrs; assay type: functional
Pseudomonas aeruginosa = experiment: Antibacterial activity against Pseudomonas aeruginosa ATCC 27853 after 24 hrs by microdilution method; assay type: functional, organism-based
HeLa = experiment: Cytotoxicity against human HeLa cells after 48 hrs by MTT assay; assay type: functional, cell-based
Staphylococcus aureus [4] = experiment: Bactericidal activity against Staphylococcus aureus ATCC 29213 after 24 hrs; assay type: functional; conditions: ATCC 29213, 24 h
A549 = experiment: Cytotoxicity against human A549 cells after 48 hrs by MTT assay; assay type: functional, cell-based
Escherichia coli = experiment: Antibacterial activity against Escherichia coli ATCC 25922 after 24 hrs by microdilution method; assay type: functional, organism-based
Staphylococcus aureus [5] = experiment: Antibacterial activity against Staphylococcus aureus ATCC 29213 after 24 hrs by microdilution method; assay type: functional; conditions: ATCC 29213, 24 h
Enterococcus faecalis [6] = experiment: Antibacterial activity against vancomycin-resistant Enterococcus faecalis after 24 hrs by microdilution method; assay type: functional

| SMILES | MIC (Staphylococcus aureus [1]) | IC50 (PC-3) | MBC (Staphylococcus aureus [2]) | MBC (Enterococcus faecalis [3]) | Activity (Pseudomonas aeruginosa) | IC50 (HeLa) | MBC (Staphylococcus aureus [4]) | IC50 (A549) | Activity (Escherichia coli) | MIC (Staphylococcus aureus [5]) | MIC (Enterococcus faecalis [6]) |
| --- | --- | --- | --- | --- | --- | --- | --- | --- | --- | --- | --- |
| Fc1ccc(C(c2c[nH]c3ccc(Br)cc23)c2c[nH]c3ccc(Br)cc23)cc1 | 1 µg/mL (≈ 2.01 µM) | 3.9 µM | 1 µg/mL (≈ 2.01 µM) | 16 µg/mL (≈ 32.1 µM) | inactive | 2.7 µM | 1 µg/mL (≈ 2.01 µM) | 4.5 µM | inactive | 1 µg/mL (≈ 2.01 µM) | 8 µg/mL (≈ 16.1 µM) |
| Cn1cc(C(c2ccc(F)cc2)c2cn(C)c3ccc(Br)cc23)c2cc(Br)ccc21 | 8 µg/mL (≈ 15.2 µM) | 38.9 µM | 8 µg/mL (≈ 15.2 µM) | 8 µg/mL (≈ 15.2 µM) |  | 25.4 µM | 4 µg/mL (≈ 7.6 µM) | 29.4 µM |  | 4 µg/mL (≈ 7.6 µM) | 8 µg/mL (≈ 15.2 µM) |
| COc1ccc(Cn2cc(C(c3ccc(F)cc3)c3cn(Cc4ccc(OC)cc4)c4ccc(Br)cc34)c3cc(Br)ccc32)cc1 | > 128 µg/mL | 43.5 µM |  |  |  | 48.5 µM |  | 36.4 µM |  | > 128 µg/mL | > 128 µg/mL |
